Several values for one entry are separate records, joined by “and”; a condition that tells them apart may be missing. Identical values can stand only once. Like-named read-outs stand apart in the source and are kept apart here.
What was measured:
[1] = system: L. salivarius MP98; test: Sensitivity to antibiotics by E-test (MIC); format: cell-based, Ligilactobacillus salivarius; parameters: MIC value: unit not given here
[2] = Recurrent gout trial: gout episodes and intake of gout-related drugs; format: in vivo, human; conditions: control group (allopurinol), individual patients 1-15
[3] = Recurrent gout trial: blood biochemical parameters (uric acid, lipids, transaminases); format: in vivo, human
[4] = Recurrent gout trial: oxidative stress (OS)-related parameters and NOx in plasma; format: in vivo, human
[5] = human, in vivo; cited from earlier work
[6] = MIC of the antibiotic to L. salivarius MP98, E-test
[7] = drug intake recorded through the study
[8] = control group (allopurinol), individual patients 1-15, serum, after finishing the study
[9] = control group, before starting the study, individual patients 1-15
[10] = control group (allopurinol), individual patients 1-15, plasma, after finishing the study
[11] = control group, before starting the study, individual patients 1-15, normalized per mg protein
[12] = control group, before starting the study, individual patients 1-15, plasma concentration (µmol/L)

penicillin
MIC value [1]: 0.25

NC[C@H]1O[C@H](O[C@H]2[C@H](O)[C@@H](O[C@H]3O[C@H](CO)[C@@H](O)[C@H](N)[C@H]3O)[C@H](N)C[C@@H]2N)[C@H](O)[C@@H](O)[C@@H]1O [KAN, kanamycin]
MIC ([1]; Ligilactobacillus salivarius, MIC of the antibiotic to L. salivarius MP98): 128 µg/mL

gentamycin
MIC value [1, 6]: 2

Oc1ncnc2[nH]ncc12 [allopurinol]
Gout episodes (during study period) [2]: 0 (2×) and 1 (8×) and 2 (4×) and 3
Gout episodes (9 previous months) ([2]; 9 months before the study (baseline)): 1 (5×) and 2 (8×) and 0 and 3
Doses Allopurinol [2, 7]: 180 (4×) and 175 (2×) and 174 (2×) and 168 and 178 and 179 (2×) and 172 and 176 and 177
Doses Colchicin [2, 7]: 0 (2×) and 4 (6×) and 8 (3×) and 2 (2×) and 12 and 6
Doses ibuprofen and similar AINS [2, 7]: 0 (2×) and 8 and 12 (2×) and 6 (4×) and 16 and 4 (2×) and 1 and 3 (2×)
GOT (UI/L) [3, 8]: 20.05 UI/L and 22.63 UI/L and 37.84 UI/L and 37.28 UI/L and 33.57 UI/L and 27.60 UI/L and 37.24 UI/L and 21.94 UI/L and 40.68 UI/L and 41.07 UI/L and 39.21 UI/L and 31.82 UI/L and 32.99 UI/L and 38.57 UI/L and 32.42 UI/L
GPT (UI/L) [3, 8]: 19.97 UI/L and 27.46 UI/L and 44.90 UI/L and 27.61 UI/L (2×) and 43.27 UI/L and 53.45 UI/L and 34.73 UI/L and 27.08 UI/L and 59.99 UI/L and 53.87 UI/L and 35.57 UI/L and 39.40 UI/L and 44.47 UI/L and 33.84 UI/L
Total cholesterol [3, 8]: 172.63 mg/dL and 176.04 mg/dL and 206.72 mg/dL and 196.82 mg/dL and 183.24 mg/dL and 194.32 mg/dL and 176.47 mg/dL and 170.51 mg/dL and 224.95 mg/dL and 199.08 mg/dL and 193.84 mg/dL and 181.94 mg/dL and 178.63 mg/dL and 187.14 mg/dL and 183.02 mg/dL
Triglycerides [3, 8]: 157.81 mg/dL and 153.17 mg/dL and 169.90 mg/dL and 158.47 mg/dL and 165.58 mg/dL and 164.25 mg/dL and 162.81 mg/dL and 165.45 mg/dL and 189.72 mg/dL and 171.63 mg/dL and 154.57 mg/dL and 165.16 mg/dL and 163.83 mg/dL and 160.02 mg/dL and 168.91 mg/dL
Uric acid [3, 8]: 7.11 mg/dl and 7.46 mg/dl and 9.68 mg/dl and 8.87 mg/dl and 7.64 mg/dl and 9.61 mg/dl and 8.69 mg/dl and 7.90 mg/dl and 10.92 mg/dl and 10.87 mg/dl and 9.12 mg/dl (2×) and 8.57 mg/dl and 10.49 mg/dl and 9.38 mg/dl
any parameter, T1 against T2 samples ([3]; control group, 100-300 mg/daily for one year): no differences in any parameter
GOT [3, 9]: 20.94 UI/L and 24.52 UI/L and 38.57 UI/L and 36.71 UI/L and 35.83 UI/L and 25.11 UI/L and 35.37 UI/L and 21.62 UI/L and 42.75 UI/L and 40.28 UI/L and 37.01 UI/L and 30.17 UI/L and 34.88 UI/L and 39.64 UI/L and 30.53 UI/L
GPT [3, 9]: 19.32 UI/L and 25.75 UI/L and 47.78 UI/L and 29.19 UI/L and 42.81 UI/L and 55.07 UI/L and 30.64 UI/L and 25.55 UI/L and 54.98 UI/L and 49.91 UI/L and 37.56 UI/L and 30.07 UI/L and 40.39 UI/L and 45.29 UI/L and 30.37 UI/L
Total cholesterol [3, 9]: 170.45 mg/dl and 179.39 mg/dl and 208.16 mg/dl and 195.37 mg/dl (2×) and 188.31 mg/dl and 192.43 mg/dl and 177.63 mg/dl and 169.04 mg/dl and 229.46 mg/dl and 197.18 mg/dl and 184.41 mg/dl and 176.25 mg/dl and 184.30 mg/dl and 185.19 mg/dl
Triglycerides [3, 9]: 152.07 mg/dL and 151.28 mg/dL and 172.29 mg/dL and 155.83 mg/dL and 166.74 mg/dL and 162.41 mg/dL and 168.02 mg/dL and 162.33 mg/dL and 187.99 mg/dL and 172.25 mg/dL and 160.86 mg/dL and 162.25 mg/dL and 167.27 mg/dL and 162.91 mg/dL and 168.28 mg/dL
Uric acid [3, 9]: 7.03 mg/dl and 7.53 mg/dl and 9.97 mg/dl and 8.44 mg/dl (2×) and 7.56 mg/dl and 9.99 mg/dl and 7.81 mg/dl and 10.64 mg/dl and 11.69 mg/dl and 9.20 mg/dl and 8.24 mg/dl and 10.05 mg/dl and 9.92 mg/dl and 9.06 mg/dl
8-isoprostaglandin Fzs [4, 10]: 166.1 pg/mL and 162.9 pg/mL and 205.9 pg/mL and 164.8 pg/mL and 175.0 pg/mL and 192.4 pg/mL and 204.7 pg/mL and 165.2 pg/mL and 205.1 pg/mL and 207.1 pg/mL and 195.9 pg/mL and 164.5 pg/mL and 186.3 pg/mL and 191.9 pg/mL and 175.8 pg/mL
AOPPs [4, 10]: 54.87 µmol/L and 57.96 µmol/L and 66.12 µmol/L and 58.27 µmol/L and 62.35 µmol/L and 64.76 µmol/L and 60.56 µmol/L and 57.71 µmol/L and 65.70 µmol/L and 63.68 µmol/L and 60.94 µmol/L and 59.37 µmol/L and 61.97 µmol/L and 64.14 µmol/L and 59.82 µmol/L
AOPPs (nmol/mg protein) [4, 10]: 0.72 nmol/mg protein and 0.75 nmol/mg protein (2×) and 0.83 nmol/mg protein (2×) and 0.76 nmol/mg protein (2×) and 0.78 nmol/mg protein (2×) and 0.80 nmol/mg protein (2×) and 0.77 nmol/mg protein and 0.82 nmol/mg protein and 0.81 nmol/mg protein (2×)
MDA [4, 10]: 1.78 μmol/L and 1.83 μmol/L and 2.37 μmol/L and 1.84 μmol/L (2×) and 2.14 μmol/L and 2.09 μmol/L and 1.81 μmol/L (2×) and 2.29 μmol/L and 2.22 μmol/L and 2.01 μmol/L and 1.74 μmol/L and 2.27 μmol/L and 2.08 μmol/L
NOx [4, 10]: 21.32 µmol/L and 19.26 µmol/L and 23.87 µmol/L and 22.75 µmol/L and 21.13 µmol/L and 24.97 µmol/L and 24.59 µmol/L and 22.33 µmol/L and 26.43 µmol/L and 28.07 µmol/L and 24.07 µmol/L and 24.81 µmol/L and 25.79 µmol/L and 25.95 µmol/L and 22.68 µmol/L
Nitrate [4, 10]: 16.92 µmol/L and 16.86 µmol/L and 28.79 µmol/L and 19.85 µmol/L and 21.04 µmol/L and 23.87 µmol/L and 22.81 µmol/L and 17.40 µmol/L and 26.73 µmol/L and 27.47 µmol/L and 22.10 µmol/L and 17.49 µmol/L and 21.36 µmol/L and 25.27 µmol/L and 20.31 µmol/L
Nitrite [4, 10]: 1.82 µmol/L and 1.87 µmol/L and 2.29 µmol/L and 1.67 µmol/L and 2.03 µmol/L and 2.24 µmol/L and 2.27 µmol/L and 1.84 µmol/L and 2.02 µmol/L and 2.22 µmol/L and 2.19 µmol/L and 1.77 µmol/L and 2.26 µmol/L and 2.20 µmol/L and 1.88 µmol/L
SH groups [4, 10]: 429.5 µmol/L and 423.6 µmol/L and 448.1 µmol/L and 429.7 µmol/L and 435.4 µmol/L and 430.2 µmol/L and 431.0 µmol/L and 426.3 µmol/L and 451.8 µmol/L and 436.7 µmol/L and 436.1 µmol/L and 433.4 µmol/L and 436.8 µmol/L and 432.7 µmol/L and 431.3 µmol/L
SH groups (nmol/mg protein) [4, 10]: 5.19 nmol/mg protein and 5.21 nmol/mg protein and 5.72 nmol/mg protein and 5.41 nmol/mg protein (2×) and 5.42 nmol/mg protein and 5.36 nmol/mg protein and 5.23 nmol/mg protein and 6.02 nmol/mg protein and 5.59 nmol/mg protein and 5.48 nmol/mg protein and 5.47 nmol/mg protein and 5.43 nmol/mg protein and 5.74 nmol/mg protein and 5.52 nmol/mg protein
TBARM [4, 10]: 22.89 µmol/L and 23.48 µmol/L and 29.92 µmol/L and 27.01 µmol/L and 27.83 µmol/L and 27.59 µmol/L and 29.04 µmol/L and 25.67 µmol/L and 25.91 µmol/L and 28.75 µmol/L and 26.32 µmol/L and 24.81 µmol/L and 27.09 µmol/L and 28.27 µmol/L and 24.86 µmol/L
8-isoprostaglandin F2α [4, 9]: 161.7 pg/mL and 209.0 pg/mL and 162.6 pg/mL and 177.1 pg/mL and 195.2 pg/mL and 207.3 pg/mL and 160.9 pg/mL and 202.4 pg/mL and 207.5 pg/mL and 194.8 pg/mL and 166.1 pg/mL and 184.9 pg/mL and 195.7 pg/mL and 174.4 pg/mL and 162.2 pg/mL
MDA [4, 9]: 1.86 μmol/L and 2.41 μmol/L (2×) and 1.78 μmol/L and 2.02 μmol/L and 1.99 μmol/L and 1.92 μmol/L and 1.79 μmol/L and 2.17 μmol/L and 2.09 μmol/L and 1.83 μmol/L and 2.19 μmol/L and 2.00 μmol/L and 1.87 μmol/L and 1.74 μmol/L
NOx [4, 9]: 19.01 µmol/L and 18.98 µmol/L and 25.67 µmol/L and 21.48 µmol/L and 21.66 µmol/L and 25.18 µmol/L and 24.07 µmol/L and 20.01 µmol/L and 28.23 µmol/L and 27.09 µmol/L and 25.56 µmol/L and 22.29 µmol/L and 26.86 µmol/L and 24.48 µmol/L and 23.16 µmol/L
Nitrate [4, 9]: 16.85 µmol/L and 16.77 µmol/L and 31.12 µmol/L and 19.64 µmol/L and 22.48 µmol/L and 23.99 µmol/L and 20.29 µmol/L and 16.93 µmol/L and 27.46 µmol/L and 28.65 µmol/L and 20.92 µmol/L and 17.03 µmol/L and 22.52 µmol/L and 24.81 µmol/L and 20.02 µmol/L
Nitrite [4, 9]: 1.73 μmol/L and 1.81 μmol/L and 2.41 μmol/L and 1.79 μmol/L and 2.12 μmol/L and 2.11 μmol/L (2×) and 2.06 μmol/L and 1.71 μmol/L and 2.14 μmol/L (2×) and 2.27 μmol/L and 1.84 μmol/L and 2.21 μmol/L and 1.92 μmol/L
TBARM [4, 9]: 22.93 µmol/L and 31.02 µmol/L and 24.76 µmol/L and 26.91 µmol/L and 28.14 µmol/L and 27.31 µmol/L and 24.97 µmol/L and 27.28 µmol/L and 27.99 µmol/L and 27.43 µmol/L and 23.07 µmol/L and 28.11 µmol/L and 28.00 µmol/L and 25.79 µmol/L and 23.16 µmol/L
AOPPs [4, 11]: 0.74 nmol/mg protein and 0.83 nmol/mg protein and 0.75 nmol/mg protein (2×) and 0.78 nmol/mg protein and 0.81 nmol/mg protein (2×) and 0.77 nmol/mg protein (2×) and 0.73 nmol/mg protein (2×) and 0.84 nmol/mg protein and 0.82 nmol/mg protein and 0.79 nmol/mg protein and 0.80 nmol/mg protein
SH groups [4, 11]: 5.23 nmol/mg protein and 5.84 nmol/mg protein and 5.37 nmol/mg protein and 5.44 nmol/mg protein and 5.45 nmol/mg protein and 5.39 nmol/mg protein and 5.11 nmol/mg protein and 6.10 nmol/mg protein and 5.54 nmol/mg protein and 5.59 nmol/mg protein and 5.42 nmol/mg protein and 5.48 nmol/mg protein and 5.79 nmol/mg protein and 5.51 nmol/mg protein and 5.14 nmol/mg protein
AOPPs [4, 12]: 57.87 µmol/L and 65.77 µmol/L and 59.02 µmol/L and 62.29 µmol/L and 64.83 µmol/L and 60.36 µmol/L and 58.95 µmol/L and 65.81 µmol/L and 63.52 µmol/L and 61.07 µmol/L and 59.50 µmol/L and 61.92 µmol/L and 64.34 µmol/L and 59.71 µmol/L and 55.91 µmol/L
SH groups [4, 12]: 425.7 μmol/L and 442.0 μmol/L and 427.9 μmol/L and 441.5 μmol/L and 432.7 μmol/L (2×) and 433.9 μmol/L and 425.9 μmol/L and 448.3 μmol/L and 434.9 μmol/L (2×) and 438.4 μmol/L and 435.1 μmol/L and 432.2 μmol/L and 426.6 μmol/L
patients in gout therapy achieving serum urate levels <6 mg/dl (<0.35 mmol/L) [5]: 20-40%

virginiamycin
MIC value [1, 6]: 0.25

Cc1nc(-c2ccc(OCC(C)C)c(C#N)c2)sc1C(=O)O [febuxostat]
patients in gout therapy achieving serum urate levels <6 mg/dl (<0.35 mmol/L) [5]: 45-67%
